Values after ≈ are worked out from the molar mass of the structure shown. Like-named read-outs stand apart in the source and are kept apart here.
Experiments:
S. aureus MRSA 9 = experiment: Antibacterial activity, multidrug-resistant strain; assay type: cell-based; settings: for effect of the antibiotic alone on the multidrug-resistant clinical strain: breakpoint concentrations (1 mg/L); for IC50: Staphylococcus aureus, MRSA, multidrug-resistant strain, three repetitions ± SEM
Procedure: (§1) To evaluate the ability to modulate bacterial resistance, the tested flavonoids themselves cannot exert antimicrobial activity; therefore, the nontoxic concentration was used, as indicated in Table S5. Clinically relevant antibiotics were selected at breakpoint concentrations for susceptibility testing according to the European Committee on Antimicrobial Susceptibility Testing (EUCAST, version 11.0). […] Flavonoids and their derivatives (from 1 μM to the highest nontoxic concentration) were used in combination with the breakpoint concentration of the antibiotics. After coincubation, the minimum inhibitory concentration (MIC) of flavonoids inhibiting the visible growth of bacteria was determined (Table 2).
(§2) Sensitization of multidrug-resistant clinical bacterial strains was performed according to ref[15]. Antibiotic cutoff concentration was chosen according to the European Committee on Antimicrobial Susceptibility Testing (EUCAST, Clinical breakpoints–bacteria, ver. 11.0). The 200 μM concentration of the derivatives was chosen as the highest test concentration. The absorbance detected at 600 nm was then used to estimate the number of viable cells after 24 h of incubation at 37 °C and 120 rpm.
(§3) Experiments were performed with the respective number of replicates indicated in each figure/table. MIC was determined as IC70. Both IC70 and IC50 values were calculated using the following nonlinear regression in the software GraphPad Prism: […]

[1] = test system: immortalized human keratinocytes (HaCaT); experiment: Cytotoxicity (resazurin assay), keratinocytes; assay type: cell-based; settings: 72 h incubation, resazurin, average of three repetitions ± SEM, read-out: HaCaT IC50 (concentration that halved the viability)
Procedure: (§4) The cytotoxicity of the prepared derivatives was evaluated by their ability to decrease the viability of immortalized human keratinocytes (HaCaT) and human dermal fibroblasts (HDF).
(§5) 100 μL of cell suspension containing 10^5 cells/mL was pipetted into a 96-well plate. After 24 h incubation, the tested compounds were added in the concentration range 12.5–200 μM. After 72 h incubation, the cell viability was tested by standard resazurin assay.[41] Briefly, the cells were washed with PBS and incubated with 100 μL of resazurin solution (0.025 mg/mL) for 2 h. The fluorescence was measured at a wavelength of 560 nm excitation/590 nm emission.

RAW 264.7 cells = experiment: Cellular antioxidant activity (CAA); assay type: cell-based, Murine; settings: Mus musculus, RAW264.7, macrophages RAW 264.7; average of four repetitions ± standard error of the mean
Procedure: To evaluate the antioxidant activity of the prepared derivatives and the respective parent compounds, cellular antioxidant activity (CAA) was measured in macrophages. Compared to other in vitro antioxidant assays, this method provides partial information about the uptake and metabolism of the compounds, because, in this assay, they must first enter the cell to exert antioxidant activity.[31] […] Derivatization of quercetin at C-8 with 4-fluoroaniline (5) increased the antioxidant activity of quercetin by 1.7-fold. […] The concentration of these derivatives required to halve the cellular radicals decreased 1.5-fold compared to luteolin.
Cellular antioxidant capacity was evaluated as previously described.[31],[39] Briefly, 100 μL of RAW 264.7 cells with a density corresponding to 1 × 10^6 cells/mL were split into 96-well plates. After 24 h, cells were washed with PBS, and DMEM supplemented with DCFH-DA (0.0125 mg/mL) was added to each well together with the tested samples in the concentration range of 1.5–200 μM. After 1 h incubation in a CO2 incubator, the medium was replaced with AAPH solution (0.16 mg/mL in PBS), and fluorescence was immediately recorded (ex./em. 485/540 nm) for 2 h in 5 min intervals.

S. aureus CCM 4223 = experiment: Antibacterial activity, antibiotic-sensitive strain; assay type: cell-based; settings: Staphylococcus aureus, CCM4223, three repetitions ± SEM
[2] = test system: Staphylococcus aureus MRSA 9; experiment: Modulation of antibiotic-resistant phenotype (flavonoid plus breakpoint concentration of antibiotic); assay type: cell-based; settings: for minimum inhibitory concentration (MIC) in the presence of erythromycin: erythromycin at breakpoint concentration 1 mg/L; for minimum inhibitory concentration (MIC) in the presence of erythromycin / minimum inhibitory concentration (MIC) in the presence of gentamicin: MIC determined as IC70, three repetitions ± SEM; for minimum inhibitory concentration (MIC) in the presence of gentamicin: gentamicin at breakpoint concentration 1 mg/L
Procedure: as §1, §2, §3

[3] = test system: interleukin 6 (IL-6) production by RAW 264.7 stimulated by LPS; experiment: Anti-inflammatory activity: IL-6 production by LPS-stimulated macrophages; assay type: cell-based, Murine; settings: Mus musculus, RAW264.7; LPS-stimulated RAW 264.7; average of four repetitions ± SEM
Procedure: (§6) The anti-inflammatory activity of flavonoids was evaluated as their ability to decrease the production of signaling molecules that mediate inflammation, such as nitric oxide (NO), tumor necrosis factor (TNF-α), and interleukin 6 (IL-6), in LPS-stimulated macrophages.
(§7) The anti-inflammatory activity of the tested flavonoids was determined as the ability to reduce the production of nitric oxide (NO), tumor necrosis factor (TNF-α), and interleukin 6 (IL-6) by RAW 264.7 stimulated by LPS, as previously described.[39],[40] Briefly, 1 × 10^6 cells/mL was seeded into the 96-well plate (100 μL/well). After 48 h, LPS (100 ng/mL) and the samples (3–100 μM) were added to the MEM medium. After 24 h, the medium was mixed with Griess reagent (0.04 g/mL) at a 1:1 ratio. The absorbance was measured after 15 min at 540 nm. Cell viability was determined using the resazurin assay.
(§8) To determine TNF-α levels, cells were precultivated with the tested compounds for 24 h. After 2 h of incubation with LPS, the medium was diluted 1:10 with ELISA diluent. To determine the level of IL-6, cells were cultivated for 6 h with LPS and the tested compounds. Cytokine production was determined using an uncoated ELISA performed according to the manufacturer’s instructions.

[4] = test system: nitric oxide (NO) production by RAW 264.7 stimulated by LPS; experiment: Anti-inflammatory activity: NO production by LPS-stimulated macrophages; assay type: cell-based, Murine; settings: Mus musculus, RAW264.7; LPS-stimulated RAW 264.7; average of four repetitions ± SEM
Procedure: as §6, §7

[5] = test system: tumor necrosis factor (TNF-α) production by RAW 264.7 stimulated by LPS; experiment: Anti-inflammatory activity: TNF-α production by LPS-stimulated macrophages; assay type: cell-based, Murine; settings: Mus musculus, RAW264.7; LPS-stimulated RAW 264.7; average of four repetitions ± SEM; read-out: TNFα production IC50
Procedure: as §6, §7, §8

[6] = test system: human dermal fibroblasts (HDF); experiment: Cytotoxicity (resazurin assay), fibroblasts; assay type: cell-based; settings: 72 h incubation, resazurin, average of three repetitions ± SEM, read-out: HDF IC50 (concentration that halved the viability)
Procedure: as §4, §5

MRSA 1584 = experiment: Mode of antimicrobial action with gentamicin, aac(6')/aph(2')-positive strain; assay type: cell-based, Staphylococcus aureus
From the text: (§9) Among the mechanisms of resistance to gentamicin previously described in S. aureus, the presence of enzymes that alter the structure of aminoglycosides is crucial. These enzymes can transfer nucleotides, phosphates, or acetyls to various −OH or −NH2 groups of gentamicin, preventing its subsequent interaction with the cellular target, i.e., the 30S ribosomal subunit. The bifunctional aminoglycoside-modifying enzyme with acetylation and phosphotransferase activities encoded by the gene aac(6’)/aph(2’), 4′,4″ adenyltransferase encoded by the aadD gene, and aminoglycoside O-phosphotransferase encoded by the gene aph(3′) are the most important.[37] […] For this reason, further testing continued using strains MRSA 3596 and MRSA 1584, which inactivate gentamicin only by a single mechanism (aadD and aac(6’)-aph(2’’), respectively).
as §2, §3

MRSA 3596 = experiment: Mode of antimicrobial action with erythromycin or gentamicin, ermA- and aadD-positive strain; assay type: cell-based, S. aureus; settings: MRSA 3596 (aadD)
From the text: Erythromycin is a macrolide antibiotic that inhibits proteosynthesis by binding to the 50S subunit of the ribosome. In Staphylococcus species, resistance to erythromycin is associated with the presence of methyltransferases (encoded by erm genes) that alter the ribosomal target site. Another typical mechanism of resistance to erythromycin is the presence of an ATP-dependent efflux pump encoded by the msr(A) gene or a major facilitator superfamily (MFS) pump encoded by the lmrS gene. Both efflux pumps reduce the concentration of erythromycin in the cell below the therapeutic dose by transporting it across the membrane to the extracellular space. Another erythromycin resistance gene is the mph(C) gene, the product of which is a phosphotransferase that alters the structure of macrolide antibiotics. To elucidate the mechanism of erythromycin resistance modulation in S. aureus, further tests were performed with the strains MRSA 331 and MRSA 3596, which inactivate erythromycin via a single mechanism (ermC and ermA, respectively). […] Therefore, if the activity was not strain-specific, it would be necessary to consider the effect of the derivatives on this pump (Table 3).
as §9, §2, §3

[7] = test system: transmembrane efflux pumps; experiment: Ethidium bromide accumulation assay; assay type: cell-based, S. aureus MSSA 2; settings: compared with comparator CCCP; concentrations 25–100 μM
From the text: The application of antibiotics often leads to oxidative stress in bacteria, which triggers the efflux pump systems that contribute to antimicrobial resistance.[34] Therefore, modulation of the efflux system has been proposed as another plausible target of derivatives. The efflux pump inhibitor carbonyl cyanide 3-chlorophenylhydrazone (CCCP) was used as a comparator in our assay. Its action destroys the proton-motive force at the membrane so that the efflux pump cannot transport substrates out of the cell. One such universal substrate is ethidium bromide, the accumulation of which in the cell can be measured using fluorescence.
The accumulation assay was performed according to previously published methods with minor modifications.[15],[42] Briefly, a bacterial culture of S. aureus MSSA 2 cultured overnight in the presence of colistin (4 mg/L) to induce oxidative stress and activate efflux system[34] was diluted in PBS to OD600 nm = 0.6. The suspension was centrifuged (13,000 × g; 3 min), resuspended in fresh PBS, and distributed into the wells of a black 96-well microtiter plate (ThermoFisher Scientific). Samples were diluted with EtBr solution (4 μg/mL). 50 μL of the mixture was added to 50 μL of the bacterial suspension. The reaction was monitored using SpectraMax iD5Multi-Mode Microplate Reader (ex/em = 530/600 nm) every 60 s for 60 min.

| Structure (SMILES) | IC50 ([1]; Homo sapiens, HaCaT, 72 h) [µM] | IC50 (RAW 264.7 cells) [µM] | IC50 (S. aureus CCM 4223) [µM] | minimum inhibitory concentration (MIC) in the presence of erythromycin [2] [µM] | minimum inhibitory concentration (MIC) in the presence of gentamicin [2] | IC50 [3] [µM] | IC50 [4] [µM] | IC50 [5] [µM] | IC50 (S. aureus MRSA 9) [µM] | IC50 ([6]; Homo sapiens, Fibroblast, 72 h) [µM] | other results |
| --- | --- | --- | --- | --- | --- | --- | --- | --- | --- | --- | --- |
| CC[C@H]1OC(=O)[C@H](C)[C@@H](O[C@H]2C[C@@](C)(OC)[C@@H](O)[C@H](C)O2)[C@H](C)[C@@H](O[C@@H]2O[C@H](C)C[C@H](N(C)C)[C@H]2O)[C@](C)(O)C[C@@H](C)C(=O)[C@H](C)[C@@H](O)[C@]1(C)O [Erythromycin, reference compound] | – | – | – | – | – | – | – | – | – | – | effect of the antibiotic alone on the multidrug-resistant clinical strain (S. aureus MRSA 9): did not affect |
| COc1cc(Nc2c(O)cc(O)c3c(=O)c(O)c(-c4ccc(O)c(O)c4)oc23)cc(OC)c1 [compound 9, 2-(3,4-Dihydroxyphenyl)-8-(3,5-dimethoxyanilino)-3,5,7-trihydroxy-4H–1-benzopyran-4-one] | 56.9 ± 1.9 | 5.7 ± 1 | > 200 | >200 | >200 µM | > 50 | 26.6 ± 0.4 | > 50 | > 200 | 76 ± 3 | – |
| O=c1c(O)c(-c2ccc(O)c(O)c2)oc2c(Nc3ccccc3)c(O)cc(O)c12 [compound 7, 2-(3,4-Dihydroxyphenyl)-8-(anilino)-3,5,7-trihydroxy-4H–1-benzopyran-4-one] | 102 ± 1.5 | 5.5 ± 0.4 | 32.7 ± 0.7 | >200 | 43.8 ± 1.6 µM | 12.9 ± 0.2 | 34.4 ± 0.2 | > 100 | 70 ± 2 | 115 ± 1.2 | effect (mode of action with gentamicin) (MRSA 1584; MRSA 1584): indifferent (> 1 to < 2 indicates indifference); MIC, Gentamicin [1 mg/L] yes (MRSA 1584; MRSA 1584 (aac(6')/aph(2')), with gentamicin 1 mg/L): 31.9 ± 2.5 µM (≈ 12.5 µg/mL); FIC (Fractional Inhibitory Concentration Index) (MRSA 1584; MRSA 1584, with gentamicin): 1.07 ± 0.13; MIC (MRSA 1584; Staphylococcus aureus, 24 h, read-out: MIC, Gentamicin [1 mg/L] no, MRSA 1584, without gentamicin): 29.9 ± 1.2 µM (≈ 11.8 µg/mL); MIC, Gentamicin [1 mg/L] yes (MRSA 3596; with gentamicin 1 mg/L): > 200 µM; MIC (MRSA 3596; Staphylococcus aureus, 24 h, read-out: MIC, Gentamicin [1 mg/L] no, without gentamicin, Table S6): > 200 µM |
| CNC(C)C1CCC(N)C(OC2C(N)CC(N)C(OC3OCC(C)(O)C(NC)C3O)C2O)O1 (centres unmarked) [gentamicin, reference compound] | – | – | – | – | – | – | – | – | – | – | effect of the antibiotic alone on the multidrug-resistant clinical strain (S. aureus MRSA 9): did not affect |
| COc1cccc2c1C(=O)c1c(O)c3c(c(O)c1C2=O)C[C@@](O)(C(=O)CO)C[C@@H]3O[C@H]1C[C@H](N)[C@H](O)[C@H](C)O1 [Doxorubicin, reference compound] | – | – | – | – | – | – | – | – | – | – | IC50 ([1]; listed as doxorubicin): < 1 µM; IC50 [1]: 0.42 ± 0.03 µM; IC50 ([6]; listed as doxorubicin): < 1 µM; IC50 [6]: 0.19 ± 0.01 µM |
| COc1ccc(Nc2c(O)cc(O)c3c(=O)c(O)c(-c4ccc(O)c(O)c4)oc23)cc1 [compound 6, 2-(3,4-Dihydroxyphenyl)-8-(4-methoxyanilino)-3,5,7-trihydroxy-4H–1-benzopyran-4-one] | 45.2 ± 3.5 | 7.5 ± 0.7 | 44 ± 0.1 | >200 | >200 ^note 2 μM | 32.3 ± 2.3 | 52.3 ± 2.3 | > 50 | 138 ± 1.2 | 79.9 ± 1.5 | inhibition at 200 µM ([2]; Staphylococcus aureus, MRSA, with gentamicin 1 mg/L, maximum concentration used (200 μM), read-out: maximum concentration used inhibited bacterial growth to): 50.7% |
| N#CC(C#N)=NNc1cccc(Cl)c1 [CCCP, carbonyl cyanide 3-chlorophenylhydrazone, reference compound] | – | – | – | – | – | – | – | – | – | – | efflux inhibition (ethidium bromide accumulation), in words [7]: increases the accumulation of ethidium bromide |
